Counter-ions that a name gives are not always drawn.
Legend:
[1] = system: STING activation (IFN-β production in THP-1 cells); assay: Human IFN-β production inhibition test by cGAMP stimulation in THP-1 cells; format: cell-based; set-up: IFN-β bioinhibitory activity: scale not given here; settings: 2'3'-cGAMP transfection, 18 hours, IFN-β ELISA; for IC50: Homo sapiens, read-out: IFN-β bioinhibitory activity
Protocol: Human IFN-β production inhibition test by cGAMP stimulation
The inhibitory activity of test compounds against STING activation was evaluated by measuring the amount of IFN-β produced when human monocytic cell line THP-1 cells were stimulated with the endogenous ligand cGAMP.
After seeding THP-1 cells (ATCC) in a 96-well plate, PMA (Santa Cruz Biotechnology) adjusted to a concentration of 100 nM after addition was added, and incubated at 37° C. in a 5% CO2 incubator. It was cultured overnight (RPMI1640 medium containing 10% FBS, 50 U/mL penicillin/50 μg/mL streptomycin). A test compound solution adjusted to a final concentration of 0.001 to 1 μM was added to each well of this plate and cultured for 1 hour in a CO2 incubator (DMSO final concentration 0.1%). 0.12 μg/well of 2′3′-cGAMP (Invivogen, #tlrl-nacga23) was introduced into the cells by transfection using Lipofectamine2000 (Invitrogen) and cultured in a CO incubator for an additional 18 hours. After collecting the culture supernatant from each well, the amount of human IFN-β produced in the culture supernatant was measured by ELISA using R&D human IFN-β Duoset (R&D Systems).
Assuming that the human IFN-β production amount of the test compound-free and cGAMP-added group is 100%, and the human IFN-β production amount of the test compound-free and cGAMP-free group is 0%, the IC50 value was determined by regression analysis of the inhibitory rate determined from the amount of human IFN-β production at each compound concentration and the concentration of the test compound (logarithm).

human STING (hSTING) = molecular target: T1, human STING (hSTING) (Homo sapiens, UniProt Q86WV6); assay: Inhibition test of intracellular human STING (hSTING) pathway using SEAP reporter cells (HEK-Blue ISG), stimulation with Compound 3; format: cell-based; set-up: hSTING inhibitory activity: scale not given here; settings: Compound 3 10 nM stimulation, 21 hours
T1 construct: host or cells: HEK-Blue ISG cells (HEK293-derived SEAP reporter line)
T1 sequence (Q86WV6 whole entry H232R): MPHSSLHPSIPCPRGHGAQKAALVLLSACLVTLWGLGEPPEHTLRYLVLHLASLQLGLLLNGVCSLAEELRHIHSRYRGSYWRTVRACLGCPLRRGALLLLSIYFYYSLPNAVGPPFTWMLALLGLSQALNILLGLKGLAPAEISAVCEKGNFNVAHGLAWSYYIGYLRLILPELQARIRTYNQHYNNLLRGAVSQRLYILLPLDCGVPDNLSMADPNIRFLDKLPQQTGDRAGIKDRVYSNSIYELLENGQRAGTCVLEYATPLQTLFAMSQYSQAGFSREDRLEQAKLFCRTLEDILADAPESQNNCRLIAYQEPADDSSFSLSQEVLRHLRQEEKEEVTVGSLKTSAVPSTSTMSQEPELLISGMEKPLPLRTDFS
Method in brief: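 HEK-Blue ISG cells with IRF-inducible SEAP reporter, pretreated 1 h with compound (final 0.1 to 10 μM), then stimulated with Compound 3 (final 10 nM) for 21 h at 37° C. Supernatant SEAP measured colorimetrically; IC50 from log-concentration regression, normalized to stimulated (100%) and unstimulated (0%) controls.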

SMILES	IC50 [1] [nM]	hSTING inhibitory activity (human STING (hSTING))	IC50 (human STING (hSTING); read-out: hSTING inhibitory activity) [µM]	IFN-β bioinhibitory activity [1]
CN(C)n1c(Nc2c[nH]c3ccc(Cl)cc23)nc2cc(Cl)ccc21 [Embodiment 265, 5-Chloro-N2-(5-chloro-1H-indol-3-yl)-N1,N1-dimethyl-1H-benzo [d]imidazole-1,2-diamine]		* * *		* *
Nn1c(Nc2c[nH]c3ccc(Cl)cc23)nc2cc(C(F)(F)F)cc(F)c21 [Embodiment 269, N2-(5-Chloro-1H-indol-3-yl)-7-fluoro-5-(trifluoromethyl)-1H-benzo[d]imidazole-1,2-diamine]		* * *		* *
COCCn1c(Nc2c[nH]c3ccc(Br)nc23)nc2ccc(Oc3ccccc3)cc21 [Embodiment 93, N-(5-bromo-1H-pyrrolo[3,2-b]pyridin-3-yl)-1-(2-methoxyethyl)-6-phenoxy-1H-benzo[d]imidazol-2-amine]	100 to 1000	* * *		
Cn1c(Nc2c[nH]c3ccc(Cl)cc23)nc2cc(C(F)(F)F)cc(Cl)c21 [Embodiment 249, 7-Chloro-N-(5-chloro-1H-indol-3-yl)-1-methyl-5-(trifluoromethyl)-1 H-benzo[d]imidazol-2-amine]		* * *		* *
OCCCn1c(Nc2c[nH]c3ccc(Cl)cc23)nc2cc(C(F)(F)F)ccc21 [Embodiment 260, 3-{2-[(5-Chloro-1H-indol-3-yl)amino]-5-(trifluoromethyl)-1H-benzo [d]imidazol-1-yl]propan-1-oar]	100 to 1000	* *		
CCc1ccc2[nH]cc(Nc3nc4ccc(Oc5ccc(F)cc5)cc4n3C)c2n1 [Embodiment 192, N-(5-ethyl-1H-pyrrolo[3,2-b]pyridin-3-yl)-6-(4-fluorophenoxy)-1-methyl-1H-benzo[d]imidazole-2-amine formate]	100 to 1000	* *		
Cn1c(Nc2c[nH]c3ccc(Cl)cc23)nc2cc(OC(F)(F)F)ccc21 [Embodiment 246, N-(5-Chloro-1H-indol-3-yl)-1-methyl-5-(trifluoromethoxy)-1H-benzo[d]imidazol-2-amine]		* * *		* * *
CCCCn1c(Nc2c[nH]c3ccc(Br)nc23)nc2ccc(Oc3ccccc3)cc21 [Embodiment 91, N-(5-bromo-1H-pyrrolo[3,2-b]pyridin-3-yl)-1-butyl-6-phenoxy-1H-benzo[d]imidazol-2-amine]	100 to 1000	* * *		
FC(F)(F)c1ccc2c(c1)nc(Nc1c[nH]c3ccc(Cl)cc13)n2C1CC1 [Embodiment 57, N-(5-chloro-1H-indol-3-yl)-1-cyclopropyl-5-(trifluoromethyl)-1H-benzo[d]imidazol-2-amine]		* * *		* *
Cn1c(Nc2c[nH]c3ccc(Cl)cc23)nc2cc(F)ccc21 [Embodiment 185, N-(5-Chloro-1H-indol-3-yl)-5-fluoro-1-methyl-1H-benzo[d]imidazol-2-amine formate]		* *		* * *
C=C(C)c1ccnc2c(Nc3nc4cc(Oc5ccccc5)ccc4[nH]3)c[nH]c12 [Embodiment 144, 5-phenoxy-N-[7-(prop-1-en-2-yl)-1H-pyrrolo[3,2-b]pyridin-3-yl]-1H-benzo[d]imidazole-2-amine]	≥ 1000	* *		
COCCn1c(Nc2c[nH]c3ccc(Cl)cc23)nc2cc(C(F)(F)F)ccc21 [Embodiment 222, N-(5-Chloro-1H-indol-3-yl)-1-(2-methoxyethyl)-5-(trifluoromethyl)-1H-benzo[d]imidazol-2-amine]		* * *		* *
Cn1c(Nc2c[nH]c3ccc(Cl)nc23)nc2cc(Oc3ccccc3)ccc21 [Embodiment 45, N-(5-Chloro-1H-pyrrolo[3,2-b]pyridin-3-yl)-1-methyl-5-phenoxy-1H-benzo[d]imidazol-2-amine]	100 to 1000	* *		
OCCn1c(Nc2c[nH]c3ccc(Cl)cc23)nc2cc(C(F)(F)F)cc(F)c21 [Embodiment 236, 2-{2-[(5-chloro-1H-indol-3-yl)amino]-7-fluoro-5-(trifluoromethyl)-1H-benzo[d]imidazol-1-yl}ethane-1-oar]		* * *		* *
Cn1c(Nc2c[nH]c3ccc(Cl)cc23)nc2cc(C(F)(F)F)cc(C#N)c21 [Embodiment 264, 2-[(5-Chloro-1H-indol-3-yl)amino]-1-methyl-5-(trifluoromethyl)-1H-benzo[d]imidazole-7-carbonitrile]	100 to 1000	* * *		

Now from value to compound, other results behind:

IC50 [1] [nM]	hSTING inhibitory activity (human STING (hSTING))	IC50 (human STING (hSTING); read-out: hSTING inhibitory activity) [µM]	SMILES	IFN-β bioinhibitory activity [1]
100 to 1000	* * *		Clc1cc2nc(Nc3c[nH]c4ccc(Br)nc34)[nH]c2cc1Cl [Embodiment 88, N-(5-bromo-1H-pyrrolo[3,2-b]pyridin-3-yl)-5,6-dichloro-1H-benzo[d]imidazol-2-amine]	
100 to 1000	* *		Cc1ccnc2c(Nc3nc4cc(Oc5ccccc5)ccc4[nH]3)c[nH]c12 [Embodiment 52, N-(7-methyl-1H-pyrrolo[3,2-b]pyridin-3-yl)-5-phenoxy-1H-benzo[d]imidazol-2-amine]	
		1 to 10	Cn1c(Nc2c[nH]c3ccc(Cl)nc23)nc2cc(Br)ccc21 [Embodiment 169, 5-bromo-N-(5-chloro-1H-pyrrolo [3,2-b]pyridin-3-yl)-1-methyl-1H-benzo[d]imidazol-2-amine]	* *
	* * *		Brc1ccc2[nH]c(Nc3c[nH]c4ccc(Br)cc34)nc2c1 [Example 7, 5-bromo-N-(5-bromo-1H-indol-3-yl)-1H-benzo[d]imidazol-2-amine]	* *
	* *		Fc1ccc2[nH]c(Nc3c[nH]c4ccc(Cl)nc34)nc2c1F [Embodiment 82, N-(5-Chloro-1H-pyrrolo[3,2-b]pyridin-3-yl)-4,5-difluoro-1H-benzo[d]imidazol-2-amine]	* *
100 to 1000	* *		Fc1ccc(Oc2ccc3nc(Nc4c[nH]c5ccc(Cl)nc45)n(C4CC4)c3c2)cc1 [Embodiment 187, N-(5-chloro-1H-pyrrolo[3,2-b]pyridin-3-yl)-1-cyclopropyl-6-(4-fluorophenoxy)-1H-benzo[d] imidazole-2-amine]	
	* *		Cn1c(Nc2c[nH]c3ccc(Cl)nc23)nc2cc(C(F)(F)F)ccc21 [Embodiment 47, N-(5-Chloro-1H-pyrrolo[3,2-b]pyridin-3-yl)-1-methyl-5-(trifluoromethyl)-1H-benzo[d] imidazol-2-amine]	* *
	* *		Cn1c(Nc2c[nH]c3ccc(Cl)nc23)nc2cc(OC(F)(F)F)ccc21 [Embodiment 210, N-(5-Chloro-1H-pyrrolo[3,2-b]pyridin-3-yl)-1-methyl-5-(trifluoromethoxy)-1H-benzo[d] imidazol-2-amine]	* *
100 to 1000	* * *		Clc1ccc2[nH]cc(Nc3nc4cc(OC5CCCCC5)ccc4[nH]3)c2n1 [Embodiment 120, N-(5-Chloro-1H-pyrrolo[3,2-b]pyridin-3-yl)-5-(cyclohexyloxy)-1H-benzo[d]imidazol-2-amine formate]	
100 to 1000	* *		Clc1ccc2[nH]cc(Nc3nc4cc(N5CCCCC5)ccc4[nH]3)c2n1 [Embodiment 151, N-(5-Chloro-1H-pyrrolo[3,2-b]pyridin-3-yl)-5-(piperidin-1-yl)-1H-benzo[d]imidazol-2-amine]	
	* * *		C#Cc1ccc2[nH]cc(Nc3nc4cc(Oc5ccccc5)ccc4[nH]3)c2n1 [Embodiment 111, N-(5-ethynyl-1H-pyrrolo[3,2-b]pyridin-3-yl)-5-phenoxy-1H-benzo[d]imidazol-2-amine formate]	* *
100 to 1000	* *		Clc1ccc2[nH]cc(Nc3nc4cc(C#CC5CC5)ccc4[nH]3)c2n1 [Embodiment 125, N-(5-Chloro-1H-pyrrolo[3,2-b]pyridin-3-yl)-5-(cyclopropylethynyl)-1H-benzo[d]imidazol-2-amine]	
100 to 1000	* *		CC(C)Oc1ccc2[nH]c(Nc3c[nH]c4ccc(Cl)nc34)nc2c1 [Embodiment 158, N-(5-Chloro-1H-pyrrolo[3,2-b]pyridin-3-yl)-5-isopropoxy-1H-benzo [d]imidazol-2-amine]	

From patent publication US20240279205A1, “NOVEL BENZIMIDAZOLE DERIVATIVE” (Carna Biosciences, Inc., priority 2020, published 2024)
